Data as given in ChEMBL document CHEMBL1136993, “Efficient chemoenzymatic synthesis, cytotoxic evaluation, and SAR of epoxysterols” (J Med Chem, 2009).

How the values were obtained:
HT-29 = test: Cytotoxicity against human HT-29 cells after 48 hrs by Alamar Blue assay; format: functional, cell-based; details: HT-29, 48 h
LAMA-84 = test: Cytotoxicity against human LAMA-84 cells after 48 hrs by Alamar Blue assay; format: functional, cell-based; details: LAMA-84, 48 h
BJ = test: Cytotoxicity against human BJ cells after 48 hrs by Alamar Blue assay; format: cell-based

| SMILES | IC50 (HT-29) [µM] | IC50 (LAMA-84) [µM] | IC50 (BJ) [µM] |
| --- | --- | --- | --- |
| CC(C)CCC[C@@H](C)[C@H]1CC[C@H]2[C@@H]3[C@@H]4O[C@@]45C[C@@H](O)CC[C@]5(C)[C@H]3CC[C@]12C | 40.9 |  |  |
| CC(C)CCC[C@@H](C)[C@H]1CC[C@H]2[C@@H]3[C@H](O)[C@@H]4O[C@@]45C[C@@H](O)CC[C@]5(C)[C@H]3CC[C@]12C | 33.8 |  |  |
| CC(=O)O[C@H]1[C@@H](O)CC[C@]2(C)[C@H]3CC[C@]4(C)[C@@H]([C@H](C)CCCC(C)C)CC[C@H]4[C@@H]3C[C@H]3O[C@@]312 | 15.9 | 8.1 |  |
| CC(=O)O[C@H]1CC[C@]2(C)[C@H]3CC[C@]4(C)[C@@H]([C@H](C)CCCC(C)C)CC[C@H]4[C@@H]3C[C@H]3O[C@]32[C@H]1O | 28.2 |  |  |
| CC(C)CCC[C@@H](C)[C@H]1CC[C@H]2[C@@H]3C[C@H]4O[C@]45C[C@@H](O)CC[C@]5(C)[C@H]3CC[C@]12C | 37.6 |  |  |
| CC(C)CCC[C@@H](C)[C@H]1CC[C@H]2[C@@H]3C[C@@H]4O[C@@]45[C@@H](O)[C@@H](O)CC[C@]5(C)[C@H]3CC[C@]12C | 38.2 |  |  |
| CC(C)CCC[C@@H](C)[C@H]1CC[C@H]2[C@@H]3[C@H](O)C=C4C[C@@H](O)CC[C@]4(C)[C@H]3CC[C@]12C | 15.5 |  |  |
| CC(=O)O[C@H]1CC[C@@]2(C)C(=C[C@H](O)[C@H]3[C@@H]4CC[C@H]([C@H](C)CCCC(C)C)[C@@]4(C)CC[C@@H]32)C1 | 29.4 |  |  |
| CC(C)CCC[C@@H](C)[C@H]1CC[C@H]2[C@@H]3[C@@H](O)[C@@H]4O[C@@]45C[C@@H](O)CC[C@]5(C)[C@H]3CC[C@]12C | 13.3 | 4.1 | 13.4 |
| CC(C)CCC[C@@H](C)[C@H]1CC[C@H]2[C@@H]3CC=C4C[C@@H](O)CC[C@]4(C)[C@H]3CC[C@]12C [CHOLESTEROL] | > 50 |  |  |
| CC(C)CCC[C@@H](C)[C@H]1CC[C@H]2[C@@H]3CC[C@]45O[C@H]4[C@@H](O)CC[C@]5(C)[C@H]3CC[C@]12C | 22.6 | 11.2 | 31.4 |
| CC(C)CCC[C@@H](C)[C@H]1CC[C@H]2[C@@H]3[C@@H](O)C=C4C[C@@H](O)CC[C@]4(C)[C@H]3CC[C@]12C | 6.4 | 4.8 | 20.1 |
| CC(C)CCC[C@@H](C)[C@H]1CC[C@H]2[C@@H]3C[C@@H]4O[C@@]45C[C@@H](O)CC[C@]5(C)[C@H]3CC[C@]12C | > 50 |  |  |
| COc1cccc2c1C(=O)c1c(O)c3c(c(O)c1C2=O)C[C@@](O)(C(=O)CO)C[C@@H]3O[C@H]1C[C@H](N)[C@H](O)[C@H](C)O1 [DOXORUBICIN] | 1.15 | 0.76 | 2.7 |
| CC(C)CCC[C@@H](C)[C@H]1CC[C@H]2[C@@H]3[C@@H](O)[C@H]4O[C@]45C[C@@H](O)CC[C@]5(C)[C@H]3CC[C@]12C | 8.3 | 7 | 19.5 |
| CC(C)CCC[C@@H](C)[C@H]1CC[C@H]2[C@@H]3CCC4=C[C@@H](O)CC[C@]4(C)[C@H]3CC[C@]12C | > 50 |  |  |
| CC(C)CCC[C@@H](C)[C@H]1CC[C@H]2[C@@H]3CC=C4[C@@H](O)[C@@H](O)CC[C@]4(C)[C@H]3CC[C@]12C | > 50 |  |  |
| CC(C)CCC[C@@H](C)[C@H]1CC[C@H]2[C@@H]3CC[C@@]45O[C@@H]4[C@@H](O)CC[C@]5(C)[C@H]3CC[C@]12C | 61.9 |  |  |
| CC(C)CCC[C@@H](C)[C@H]1CC[C@H]2[C@@H]3C[C@H]4O[C@]45[C@@H](O)[C@@H](O)CC[C@]5(C)[C@H]3CC[C@]12C | 17.7 | 8 | 20.4 |
